Test results published in PubChem BioAssay (NCI).
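Tested at 5 concentrations; 48 h exposure; 96-well plates; endpoints linearly interpolated, else capped at highest concentration. At the GI50, growth is halved. TGI marks complete inhibition of growth.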

Assays:
Assay in all cases: growth of human tumour cells (NCI), 48 h
[1] = system: A498 renal
[2] = system: SK-MEL-5 melanoma
[3] = system: LOX IMVI melanoma
[4] = system: NCI-H23 lung
[5] = system: IGROV1 ovarian
[6] = system: HT29 colon
[7] = system: SNB-19 CNS
[8] = system: MALME-3M melanoma
[9] = system: SF-268 CNS
[10] = system: T-47D breast

Compound | TGI [1] | TGI [2] | TGI [3] | TGI [4] | TGI [5] | TGI [6] | TGI [7] | TGI [8] | TGI [9] | GI50 [1] | GI50 [2] | GI50 [3] | GI50 [4] | GI50 [5] | GI50 [6] | GI50 [8] | GI50 [10] | TGI [10] | GI50 [9] | GI50 [7]
O=C(CC1(O)C(=O)Nc2ccc(Br)cc21)c1ccc(Cl)cc1 (stereo not drawn) | > 100 µM | > 100 µM | 38.2 µM | > 100 µM | > 100 µM | > 100 µM | > 100 µM | > 100 µM | > 100 µM |  |  |  |  |  |  |  |  |  |  | 
C[C@]12CC/C(=N\N)C[C@@H]1CC[C@@H]1[C@@H]2CC[C@]2(C)/C(=N/N)CC[C@@H]12 | > 100 µM | > 100 µM | > 100 µM | > 100 µM | > 100 µM | > 100 µM |  | > 100 µM | > 100 µM | > 100 µM | > 100 µM | > 100 µM | > 100 µM | > 100 µM | > 100 µM | > 100 µM | > 100 µM | > 100 µM | > 100 µM | 
CC(=N\O)/C(C)=N/O.CC(=N\O)/C(C)=N/O.CC(=N\O)/C(C)=N/O.CC(=N\O)/C(C)=N/O.[Cu].[Cu] | 39.1 µM | 32.2 µM | 35.3 µM |  | 56.2 µM | 35.4 µM | 34.5 µM | 32.4 µM | 34.6 µM | 24.4 µM | 17.8 µM | 19 µM |  | 23.8 µM | 17.7 µM | 17.7 µM | 18.4 µM | 33.7 µM | 19.8 µM | 19.7 µM
CCNc1c(C(=O)N(CC)CC)c(=O)[nH]c2ncccc12 | > 100 µM | > 100 µM | > 100 µM | > 100 µM | > 100 µM | > 100 µM | > 100 µM | > 100 µM | > 100 µM |  |  |  |  |  |  |  |  |  |  | 
COc1cc(C(=O)/C=C/c2c(-c3ccc(F)cc3)nc3sc(C)cn23)cc(OC)c1OC |  | 1.98 µM | > 100 µM | 8.87 µM | > 100 µM | > 100 µM | > 100 µM | > 100 µM | > 100 µM |  | 0.516 µM | 2.5 µM | 2.24 µM | 8.71 µM | 6.96 µM | 2.69 µM | 2.93 µM | > 100 µM | 15.2 µM | 87.7 µM
CS(=O)(=O)OCCN1CCN(C(=O)c2cccc3c(Nc4ccc(S(N)(=O)=O)cc4)c4ccccc4nc23)CC1 | > 100 µM | > 100 µM | > 59.1 µM | > 100 µM | > 100 µM | > 100 µM | > 72.6 µM | > 100 µM | > 100 µM |  |  |  |  |  |  |  |  |  |  | 
CC(C)COC(=O)N1N=NC2C3OC(CC3=O)C21 (stereo not drawn) | > 100 µM | > 100 µM | > 100 µM | > 100 µM | > 31.6 µM | > 100 µM | > 100 µM | > 100 µM | > 100 µM |  |  |  |  |  |  |  |  |  |  | 
CCN(CC)c1ccc(N=C2C=C(C(=O)Nc3ccc(S(C)(=O)=O)cc3)C(=O)c3ccccc32)c(C)c1 | > 100 µM | > 100 µM | > 100 µM | > 100 µM |  | > 100 µM | > 100 µM | > 100 µM | > 100 µM | > 100 µM | 5.84 µM | 7.98 µM | 82 µM |  | > 100 µM | 30.9 µM | 51.9 µM | > 100 µM | 2.4 µM | 4.39 µM
